Measurements from patent US11084795B2, “CFTR regulators and methods of use thereof” (The Regents of the University of California, priority 2015, dated 2021).
Entries after “also recorded” stand apart in the source; their conditions may differ. Where a SMILES comes first, the peptide text is derived from it. Bridges are numbered along the chain shown (N, C = ends).

Tests used:
[1] = Compound accumulation in systemic tissues after 14 days topical dosing; assay type: in vivo, mouse
LGE BALB/c mice = assay: Lacrimal gland excision (LGE) mouse model of aqueous-deficient dry eye; assay type: in vivo
Procedure: (§1) To assess corneal epithelial disruption, 5 μL of lissamine green (LG) dye (1%) was applied to the ocular surface of isofluorane-anesthetized mice. Photographs of the eye were taken using a Nikon Digital camera adapted to an Olympus Zoom Stereo Microscope (Olympus, Center Valley, Pa., USA). Each corneal quadrant was scored on a 3-point scale by one blinded, trained observer, with the extent of staining in each quadrant classified as: 0, no staining; 1, sporadic (involving <25% of the total surface) staining; grade 2, diffuse punctate staining (25-75%); and grade 3, coalesced punctate staining (>75%). The total grade is reported as the sum of scores from all four quadrants, ranging from 0 to 12.
A lacrimal gland excision (LGE) model of aqueous-deficient dry eye was adapted from a reported method (30). The extraorbital lacrimal gland was exposed on each side of wild-type female BALB/c mice (7-8 weeks of age) by 3-mm linear skin incisions. Lacrimal ducts were cauterized and the entire gland was removed bilaterally, avoiding facial vessels and nerves. Incisions were each closed with a single interrupted 6-0 silk suture. Orbital lacrimal tissue remained functional. Eyes with reduced corneal sensation (<5% of mice studied), as identified from neurotrophic corneal ulcers within 1 day of LGE, were excluded. Mice were randomized to receive either treatment (in both eyes) with CFTRact-K089 (0.1 nmol) or vehicle. Mice were treated three times daily (8 AM, 2 PM and 8 PM) for 2 weeks starting on Day 1 after LGE. Tear secretion and LG staining were performed immediately prior to, and one hour after the initial dose on day 4, 10 and 14 after LGE.
Lissamine green staining. […] Each corneal quadrant was scored on a 3-point scale by one blinded, trained observer, with the extent of staining in each quadrant classified as: 0, no staining; 1, sporadic (involving <25% of the total surface) staining; grade 2, diffuse punctate staining (25-75%); and grade 3, coalesced punctate staining (≥75%). […]

tear fluid secretion = assay type: in vivo, mouse; conditions: for tear fluid secretion after single topical dose: wild-type mice, B074 100 μM, J027 and K089 50 μM, VX-770 10 μM, cholera toxin 0.1 μg/mL, forskolin 20 μM, IBMX 250 μM
[2] = Tear film pharmacokinetics (LC/MS of tear washes)
human wildtype CFTR = human wildtype CFTR (Homo sapiens, UniProt P13569); assay: Short-circuit current (Isc) in FRT cells expressing human wild-type CFTR
Chain of human wildtype CFTR (P13569 whole entry): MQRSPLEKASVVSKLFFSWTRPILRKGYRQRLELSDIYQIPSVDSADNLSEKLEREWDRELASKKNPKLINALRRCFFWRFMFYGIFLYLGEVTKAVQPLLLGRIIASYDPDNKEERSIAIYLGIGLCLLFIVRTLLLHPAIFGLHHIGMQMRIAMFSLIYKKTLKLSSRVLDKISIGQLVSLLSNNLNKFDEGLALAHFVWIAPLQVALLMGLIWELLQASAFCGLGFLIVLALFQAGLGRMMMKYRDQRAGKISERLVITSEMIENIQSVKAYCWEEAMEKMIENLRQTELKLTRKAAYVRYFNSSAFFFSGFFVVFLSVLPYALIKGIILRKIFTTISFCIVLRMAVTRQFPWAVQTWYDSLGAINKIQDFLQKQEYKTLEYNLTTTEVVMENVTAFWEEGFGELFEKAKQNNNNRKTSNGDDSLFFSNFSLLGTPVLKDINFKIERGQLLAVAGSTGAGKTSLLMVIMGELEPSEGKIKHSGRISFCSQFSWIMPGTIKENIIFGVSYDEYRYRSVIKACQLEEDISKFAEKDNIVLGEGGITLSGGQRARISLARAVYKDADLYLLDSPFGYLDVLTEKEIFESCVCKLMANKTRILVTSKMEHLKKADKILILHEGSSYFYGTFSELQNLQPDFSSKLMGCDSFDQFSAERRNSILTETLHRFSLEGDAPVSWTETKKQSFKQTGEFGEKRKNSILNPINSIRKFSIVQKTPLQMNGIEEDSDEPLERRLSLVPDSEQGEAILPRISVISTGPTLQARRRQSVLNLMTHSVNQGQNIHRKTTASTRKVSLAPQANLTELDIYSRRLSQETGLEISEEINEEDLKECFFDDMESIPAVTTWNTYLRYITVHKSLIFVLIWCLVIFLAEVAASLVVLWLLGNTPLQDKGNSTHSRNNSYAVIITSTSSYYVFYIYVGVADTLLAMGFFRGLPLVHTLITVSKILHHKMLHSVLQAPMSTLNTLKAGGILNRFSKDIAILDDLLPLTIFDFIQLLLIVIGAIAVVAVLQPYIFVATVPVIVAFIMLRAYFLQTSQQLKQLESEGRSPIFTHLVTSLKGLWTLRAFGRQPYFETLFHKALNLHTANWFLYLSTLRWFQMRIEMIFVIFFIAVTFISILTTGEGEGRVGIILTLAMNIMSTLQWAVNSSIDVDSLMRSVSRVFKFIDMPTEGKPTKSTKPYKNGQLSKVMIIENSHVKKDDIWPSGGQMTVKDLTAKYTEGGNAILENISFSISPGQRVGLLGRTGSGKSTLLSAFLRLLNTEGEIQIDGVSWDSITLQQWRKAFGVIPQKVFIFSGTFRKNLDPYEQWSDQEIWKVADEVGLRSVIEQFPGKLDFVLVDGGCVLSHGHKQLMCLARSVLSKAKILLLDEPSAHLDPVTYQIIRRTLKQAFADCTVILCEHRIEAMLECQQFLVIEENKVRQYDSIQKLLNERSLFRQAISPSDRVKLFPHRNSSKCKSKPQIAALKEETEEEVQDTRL

[3] = Ocular toxicity after chronic topical dosing (slit-lamp, lissamine green staining); assay type: in vivo; conditions: chronically treated mice
Procedure: as §1
as §1, with “Lissamine green staining. To” for “To”, “(≥75%).” for “(>75%).”

[4] = tested on: CFTR at the ocular surface; assay: Ocular surface potential difference (PD) in living mice; assay type: in vivo, mouse; conditions: wild-type mice; for change in ocular surface PD: 1-10 μM
Procedure: Open-circuit transepithelial PD were measured continuously in anesthetized mice in response to serial perfusions of different solutions over the ocular surface, as described (21). Mice were anesthetized with Avertin (2,2,2-tribromoethanol, 125 mg/kg intraperitoneal, Sigma-Aldrich, St. Louis, Mo., USA), and core temperature was maintained at 37° C. using a heating pad. Eyes were oriented with the cornea and conjunctiva facing upward and exposed by retracting the eyelid with cross-action forceps. Solutions were isosmolar (320±10 mOsM; compositions provided in ref. 21) and contained 10μ[…] indomethacin to prevent CFTR activation by prostaglandins. The ocular surface was perfused at 6 mL/min through plastic tubing using a multireservoir gravity pinch-valve system (ALA Scientific, Westbury, N.Y., USA) and variable-flow peristaltic pump (medium flow model; Fisher Scientific, Fair Lawn, N.J., USA). A probe catheter was fixed 1 mm above the cornea using a micropositioner and a suction cannula was positioned 3 mm from the orbit. The measuring electrode was in contact to the perfusion catheter and connected to a high-impedance voltmeter (IsoMilivolt Meter; WPI). The reference electrode was grounded via a winged 21-gauge needle filled with isosmolar saline, and inserted subcutaneously in the abdomen. Measuring and reference electrodes consisted of Ag/AgCl with 3 M KCl agar bridges.
An open-circuit potential difference (PD) method developed in our lab was used to evaluate compound activity at the ocular surface in vivo, as depicted in FIG. 3A (21). Cl^− channel function was quantified by measuring PD during continuous perfusion of the ocular surface with a series of solutions that imposed a transepithelial Cl^− gradient and contained various channel agonists and/or inhibitors. The ocular surface was first perfused with isosmolar saline to record the baseline PD. Amiloride was then added to the perfusate, followed by exchange to a low Cl^− solution in which Cl^− with an impermeant anion, gluconate. These maneuvers allow for direct visualization of CFTR activation in response to addition of candidate CFTR activators.
Ocular surface potential difference measurements. Open-circuit transepithelial PD were measured continuously in anesthetized mice in response to serial perfusions of different solutions over the ocular surface, as described (21). Mice were anesthetized with Avertin (2,2,2-tribromoethanol, 125 mg/kg intraperitoneal, Sigma-Aldrich, St. Louis, Mo., USA), and core temperature was maintained at 37° C. using a heating pad. Eyes were oriented with the cornea and conjunctiva facing upward and exposed by retracting the eyelid with cross-action forceps. […]

FRT cells = assay: Alamar Blue cytotoxicity assay in FRT cells; assay type: cell-based, rat; conditions: up to 100 μM, 1 or 24 h
loperamide-treated mice = assay: Loperamide-induced mouse model of constipation; conditions: oral 0.5 mg/kg, loperamide-treated mice
[5] = tested on: chronic constipation / IBS-C patients; conditions: linaclotide: chronic constipation; lubiprostone: IBS-C; cited from earlier work

## CCN(CC)c1nc(Nc2ccccc2)nc(OC(C(F)(F)F)C(F)(F)F)n1 [CFTRact-K089]
[1]; topical
  systemic absorption after topical delivery: without detectable systemic absorption
[1]; two weeks of three times per day topical dosing
  amount in mouse blood, brain, liver and kidney (limit of detection): < 10 fmol
LGE BALB/c mice; 0.1 nmol three times daily
  corneal / ocular surface epithelial disruption after LGE: fully prevented the corneal epithelial disruption; also recorded: prevented ocular surface epithelial disruption at all time points
LGE BALB/c mice; 0.1 nmol topically three times daily
  tear volume after LGE: restored tear secretion to basal levels; also recorded: maintained basal tear volume
LGE BALB/c mice; 12-point scale, by Day 14, 0.1 nmol three times daily
  LG score change: −0.6±0.6
Tear fluid secretion; CF mice
  tear fluid secretion in CF mice: no effect in CF mice
Tear fluid secretion
  tear fluid secretion after single topical dose: doubled basal tear secretion for four hours; also recorded: increased tear fluid secretion by approximately two-fold for at least four hours
[2]; 0.1 nmol (2 μL, 50 μM) instilled
  amount recovered from tear washes at six hours: 0.011 ± 0.004 pmol
[2]; 0.1 nmol single dose
  duration of predicted therapeutic tear fluid levels: therapeutic levels for at least six hours
Human wildtype CFTR; 100% = 20 μM forskolin
  CFTR activation (% Vmax): ~50 % Vmax
Human wildtype CFTR; forskolin produced little or no further increase in current
  extent of CFTR activation (Isc): fully activated CFTR
Human wildtype CFTR; read-out: EC50 for CFTR activation, FRT cells, wild-type CFTR, short-circuit current
  EC50: ~250 nM
[3]
  LG staining of cornea and conjunctiva: no corneal or conjunctival epithelial disruption
[3]; topical three times daily, two weeks
  ocular toxicity (slit-lamp evaluation): no signs of ocular toxicity
[4]
  hyperpolarization in ocular surface potential difference: ~8.5 mV
  change in ocular surface PD: large hyperpolarizations
FRT cells
  in vitro cytotoxicity: no appreciable in vitro cytotoxicity

## CC(C)(C)c1cc(C(C)(C)C)c(NC(=O)c2c[nH]c3ccccc3c2=O)cc1O [VX-770, reference compound]
Tear fluid secretion
  tear fluid secretion after single topical dose: little tear secretion
Human wildtype CFTR
  activity against wild-type CFTR: relatively weak activity
Human wildtype CFTR; wild-type CFTR
  maximal CFTR activation: 15%
[4]
  change in ocular surface PD: minimal changes in ocular surface PD

## C[C@@H]1NC(=O)[C@@H]2CCCN2C(=O)[C@H](CC(N)=O)NC(=O)[C@@H]2CSSC[C@H](N)C(=O)N[C@H]3CSSC[C@H](NC1=O)C(=O)N[C@@H]([C@@H](C)O)C(=O)NCC(=O)N[C@H](C(=O)N[C@@H](Cc1ccc(O)cc1)C(=O)O)CSSC[C@H](NC(=O)[C@H](Cc1ccc(O)cc1)NC(=O)[C@H](CCC(=O)O)NC3=O)C(=O)N2 [linaclotide, reference compound] (H-CCEYCCNPACTGCY-OH; disulfide 1-6, 2-10, 5-13)
loperamide-treated mice
  stool output normalization as % of the maximal CFTRact-J027 response: 35%
[5]
  patients in whom the drug was effective: ~20%

## CCCCC(F)(F)[C@@]1(O)CC[C@H]2[C@@H](CC(=O)[C@@H]2CCCCCCC(=O)O)O1 [lubiprostone]
[5]
  patients in whom the drug was effective: ~13%
